The text below walks through data of patent US5576318A, “Benzimidazolone derivatives” (Boehringer Ingelheim Italia S.p.A., priority 1991, dated 1996).

The target of one assay is T1, 5-HT1A receptor (Rattus norvegicus, UniProt P19327).
T1 construct: The Hippocampi of these animals were homogenized in 10 volumes of ice cold TRIS buffer; from tissue; host or cells: hippocampus of male Sprague Dawley rats, homogenate
T1 sequence (P19327 1-422): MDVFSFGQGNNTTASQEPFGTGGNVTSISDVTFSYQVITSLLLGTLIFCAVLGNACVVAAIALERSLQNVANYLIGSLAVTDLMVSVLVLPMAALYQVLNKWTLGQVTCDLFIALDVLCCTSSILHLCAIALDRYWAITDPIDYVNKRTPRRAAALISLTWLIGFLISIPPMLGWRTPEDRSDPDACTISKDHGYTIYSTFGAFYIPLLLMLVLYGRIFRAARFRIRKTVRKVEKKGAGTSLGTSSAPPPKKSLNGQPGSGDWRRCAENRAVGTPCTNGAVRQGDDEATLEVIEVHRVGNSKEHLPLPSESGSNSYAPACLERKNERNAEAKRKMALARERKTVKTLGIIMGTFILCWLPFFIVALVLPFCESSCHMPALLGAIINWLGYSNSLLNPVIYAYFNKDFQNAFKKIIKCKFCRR
The assay can be described thus: 5-HT1A receptor binding ([3H]-8-OH-DPAT displacement, rat hippocampi). Set-up: species or system rat (male Sprague Dawley). The following applies: 30° C. for 15 min, read-out: AFFINITY FOR 5-HT1A RECEPTORS Ki. The procedure: Rats (male Sprague Dawley, 200-250 g) were used. The Hippocampi of these animals were homogenized in 10 volumes of ice cold TRIS buffer (pH 7.4). The homogenate was diluted 1:400 (w:v) in the same buffer to have a final protein concentration of about 200 μg/mL, filtered and incubated at 37° C. for 10 min, before use.
Displacement experiments were performed by incubating the homogenate (980 μL) in the presence of [^3 H]-80H-DPAT (1.0-1,5 nM) (10 μL) and of different concentrations of the test compounds dissolved in the test buffer (10 μL), at 30° C. for 15 min (final volume: 1 mL).
Non specific binding was determined in the presence of 100 μM 5-HT (10 μL). The separation of [^3 H]-8-OH-DPAT, free from that bound to the receptor, was carried out by the filtration technique (GF/B filters, Whatman). The radioactivity present was counted by liquid scintillation spectrometry.
The affinity values (Ki) for the compounds were obtained by a non linear least squares regression analysis on the basis of a one binding site model. The values were corrected on the basis of the radioligand occupancy on the receptors according to the equation: Ki=IC50 /(1+[C]/KD),where [C] and KD represent the concentration and the dissociation constant, respectively, of the radioligand used ([^3 H]-8-OH-DPAT).

A further assay deals with T2, 5-HT2 receptor (Rattus norvegicus, UniProt P14842).
T2 construct: Cerebral cortices were homogenized in 10 volumes of ice cold 0.32M sucrose; from tissue; host or cells: cerebral cortex of male Sprague Dawley rats, membranes
T2 sequence (P14842 whole entry): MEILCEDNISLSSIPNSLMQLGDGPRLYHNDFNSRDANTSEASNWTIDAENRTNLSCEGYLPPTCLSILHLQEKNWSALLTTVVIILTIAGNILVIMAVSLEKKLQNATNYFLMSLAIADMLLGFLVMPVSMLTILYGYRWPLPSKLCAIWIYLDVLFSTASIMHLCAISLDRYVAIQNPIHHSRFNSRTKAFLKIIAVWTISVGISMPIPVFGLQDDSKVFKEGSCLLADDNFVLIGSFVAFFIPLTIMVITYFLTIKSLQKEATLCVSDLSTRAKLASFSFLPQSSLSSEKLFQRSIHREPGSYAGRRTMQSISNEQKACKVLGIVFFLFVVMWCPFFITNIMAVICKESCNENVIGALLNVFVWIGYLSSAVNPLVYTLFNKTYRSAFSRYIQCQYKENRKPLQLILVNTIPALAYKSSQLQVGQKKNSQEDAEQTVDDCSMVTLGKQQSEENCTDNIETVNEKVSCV
Description: 5-HT2 receptor binding ([3H]-Ketanserine displacement, rat cerebral cortices). Set-up: species or system rat (male Sprague Dawley). The settings on record: 37° C. for 10 min, read-out: AFFINITY FOR 5-HT2 RECEPTORS Ki. As to the method:
Receptor binding studies on 5-HT1A and 5-HT2 receptors were carried out to determine the affinity of the test compounds.
Rats (male Sprague Dawley, 200-250 g) were used. Cerebral cortices were homogenized in 10 volumes of ice cold 0.32M sucrose. After the centrifugation of the homogenate (1,000×g for 10 min) the supernatant was then recentrifuged at 48,000×g for 15 min. The resulting pellet was resuspended in 10 volumes of 50 mM TRIS buffer (pH 7.4), incubated at 37° C. for 10 min and recentrifuged at 48,000×g for 15 min. The residue was then resuspended in 10 volumes of 50 mM TRIS buffer (pH 7.4).
The tissue was diluted 1:100 (w:v) in 50 mM TRIS buffer (pH 7.4) to have a final protein concentration of about 200 μg/mL.
Displacement experiments were performed by incubating the homogenate (980 μL) in the presence of [^3 H]-Ketanserine (0.5-1.0 nM) (10 μL) and of different concentrations of the test compounds dissolved in the assay buffer (10 μL), at 37° C. for 10 min (final volume: 1 mL).
Non specific binding was determined in the presence of 100 μM Methysergide (10 μL). The separation of [^3 H]-Ketanserine free from that bound to the receptor was carried by the filtration technique (GF/B filters, Whatman). The radioactivity present was counted by liquid scintillation spectrometry.
The affinity values (Ki) for the compounds were obtained by non linear least squares regression analysis on the basis of a one binding site model. These values were corrected on the basis of the radioligand occupancy on the receptors according to the equation: Ki=IC50 /(1+[C]/KD), where [C] and KD represent the concentration and the dissociation constant, respectively, of the radioligand used ([^3 H]-Ketanserine).
The results of some of the compounds of the present invention on the affinity to the 5-HT1A and 5-HT2 receptors are reported in Table 1.

Another assay has as its system 5-HT1A receptors. The assay can be described thus: Behavioral syndrome: induction of 5-HT1A related syndrome. The following applies: within 50 min, mean ± s.e. from 4 rats. Set-up: key: sum of symptom scores per rat within 50 min. It is filed as in vivo, rat. As to the method:
The test consists of administering the compound and registering the presence of the above mentioned symptoms within 50 min giving them a score. The results are expressed as the sum of said scores for each rat (Tab. 2).
Values represent mean± s.e. from 4 rats

The next assay concerns 5-HT2 receptors. Description: Antagonism of quipazine-induced head twitches. It is filed as in vivo. The following applies: ip; head twitches scored within 20 minutes in quipazine-treated animals.

By Ki is commonly meant the dissociation constant of the complex between target and ligand, obtained from inhibition or displacement. On to `O=c1[nH]c2ccccc2n1CCCCN1CCN(c2cccc(C(F)(F)F)c2)CC1` [Compound 8, 1-[4-(4-(3-trifluoromethyl-phenyl)piperazin-1-yl)butyl]-2,3-dihydro-1H -benzimidazol-2-one], for which the Ki at 5-HT1A receptor amounted to 53 nM; on 5-HT2 receptor, 9.5 nM. For the same compound, in the assay on 5-HT1A receptors (dose 8 mg/kg/ip), the “INDUCTION OF 5-HT1A RELATED SYNDROME Total score” value is on record as 3.0 ± 2.7. Besides, the “DOSE OF COMPOUND (ID50) WHICH ANTAGONIZES THE SYNDROME INDUCED BY QUIPAZINE” value (“DOSE OF COMPOUND” for short) in the assay on 5-HT2 receptors was determined as 385 μg/kg/ip.
Take `COc1ccccc1N1CCN(CCCn2c(=O)[nH]c3ccccc32)CC1` [Compound 10, 1-[3-(4-(2-methoxyphenyl)piperazin-1-yl)propyl]-2,3-dihydro-1H-benzimidazol-2-one]: the results for the Ki on 5-HT1A receptor and at 5-HT2 receptor were 5 nM and 30 nM, respectively. Moreover, the “INDUCTION OF 5-HT1A RELATED SYNDROME Total score” value in the assay with 5-HT1A receptors (dose 8 mg/kg/ip) was found to be 3.0 ± 0.4. Also, the “DOSE OF COMPOUND” value in the assay with 5-HT2 receptors is recorded as 3300 μg/kg/ip.
Regarding `O=c1[nH]c2ccccc2n1CCCCN1CCN(c2cccc3ccccc23)CC1` [Compound 30, 1-[4-(4-(1-naphtyl)piperazin-1-yl)butyl]-2,3-dihydro-1H-benzimidazol-2-one], the Ki at 5-HT1A receptor came to 10 nM; at 5-HT2 receptor, 7 nM.
In the case of `COc1ccc2[nH]c(=O)n(CCCCN3CCN(c4ccccc4OC)CC3)c2c1` [Compound 24, 6-methoxy-1-[4-(4-(2-methoxyphenyl)piperazin-1-yl)butyl]-2,3-dihydro-1H-benzimidazol-2-one], the figures for the inhibition constant Ki on 5-HT1A receptor and on 5-HT2 receptor were 12 nM and 65 nM, respectively. Besides, in the assay with 5-HT1A receptors (dose 8 mg/kg/ip), the “INDUCTION OF 5-HT1A RELATED SYNDROME Total score” value is recorded as 4.3 ± 1.1. Besides, the “DOSE OF COMPOUND” value in the assay on 5-HT2 receptors worked out at 102 μg/kg/ip.
As to `O=c1[nH]c2ccccc2n1CCCN1CCN(c2cccc(C(F)(F)F)c2)CC1` [Compound 18, 1-[3-(4-(3-trifluoromethyl-phenyl)piperazin-1-yl)propyl]-2,3-dihydro-1H-benzimidazol-2-one], the results for the inhibition constant (Ki) at 5-HT1A receptor and at 5-HT2 receptor were 25 nM and 4 nM, respectively. The “INDUCTION OF 5-HT1A RELATED SYNDROME Total score” value in the assay on 5-HT1A receptors (dose 16 mg/kg/ip) is listed as 3.8 ± 2.2; in the assay with 5-HT1A receptors (dose 32 mg/kg/ip), 12.0 ± 3.2. Also, the “DOSE OF COMPOUND” value in the assay with 5-HT2 receptors was found to be 170 μg/kg/ip.
`O=c1[nH]c2ccccc2n1CCN1CCN(c2cccc(C(F)(F)F)c2)CC1` [Compound 3, 1-[2-(4-(3-trifluoromethyl-phenyl)piperazin-1-yl)ethyl]-2,3-dihydro-1H-benzimidazol-2-one]: the values for the inhibition constant Ki on 5-HT1A receptor and at 5-HT2 receptor were 50 nM and 133 nM, respectively. In addition, in the assay with 5-HT1A receptors (dose 16 mg/kg/ip), the “INDUCTION OF 5-HT1A RELATED SYNDROME Total score” value stood at 5.3 ± 1.2. Also, the “DOSE OF COMPOUND” value in the assay with 5-HT2 receptors was 498 μg/kg/ip.
For the compound `O=c1[nH]c2ccccc2n1CCCCN1CCN(c2cccc(Cl)c2)CC1` [Compound 4, 1-[4-(4-(3-chlorophenyl)piperazin-1-yl)butyl]-2,3-dihydro-1H-benzimidazol-2-one], the results for the Ki at 5-HT1A receptor and on 5-HT2 receptor were 74 nM and 1.4 nM, respectively. Also, the “INDUCTION OF 5-HT1A RELATED SYNDROME Total score” value with 5-HT1A receptors (dose 8 mg/kg/ip) is on record as 0.8 ± 0.5; with 5-HT1A receptors (dose 16 mg/kg/ip), 3.3 ± 1.0. The “DOSE OF COMPOUND” value in the assay with 5-HT2 receptors came out at 250 μg/kg/ip.
Take `Cn1c(=O)n(CCCCN2CCN(c3cccc(Cl)c3)CC2)c2ccccc21` [Compound 17, 1-[4-(4-(3-chlorophenyl)piperazin-1-yl)butyl]-3-methyl-2,3-dihydro-1H-benzimidazol-2-one]: the Ki at 5-HT1A receptor is 30 nM; on 5-HT2 receptor, 8 nM. The results for the “INDUCTION OF 5-HT1A RELATED SYNDROME Total score” value in the assay on 5-HT1A receptors (dose 8 mg/kg/ip) and in the assay on 5-HT1A receptors (dose 32 mg/kg/ip) were 1.5 ± 0.7 and 10.3 ± 2.9, respectively. The “DOSE OF COMPOUND” value with 5-HT2 receptors is listed as 178 μg/kg/ip.
`CCn1c(=O)n(CCCCCCN2CCN(c3cccc(C(F)(F)F)c3)CC2)c2ccccc21` [Compound 13, 1-[6-(4-(3-trifluoromethyl-phenyl)piperazin-1-yl)hexyl]-3-ethyl-2,3-dihydro-1H-benzimidazol-2-one]: the Ki on 5-HT1A receptor and at 5-HT2 receptor was 15 nM in each case. Moreover, the “INDUCTION OF 5-HT1A RELATED SYNDROME Total score” value with 5-HT1A receptors (dose 32 mg/kg/ip) is recorded as 3.8 ± 1.3. The “DOSE OF COMPOUND” value in the assay on 5-HT2 receptors is recorded as 8200 μg/kg/ip.
On to `CC(C)n1c(=O)n(CCCCN2CCN(c3cccc(C(F)(F)F)c3)CC2)c2ccccc21` [Compound 15, 1-[4-(4-(3-trifluoromethyl-phenyl)piperazin-1-yl)butyl]-3-isopropyl-2,3-dihydro-1H-benzimidazol-2-one], for which the Ki on 5-HT1A receptor was 80 nM; at 5-HT2 receptor it was 20 nM.
As to `COc1ccc2[nH]c(=O)n(CCCCN3CCN(c4cccc(C(F)(F)F)c4)CC3)c2c1` [Compound 25, 6-methoxy-1-[4-(4-(3-trifluoromethyl-phenyl)piperazin-1-yl)butyl]-2,3-dihydro-1H-benzimidazol-2-one], the Ki at 5-HT1A receptor amounted to 100 nM; at 5-HT2 receptor it was 25 nM. Also, the “INDUCTION OF 5-HT1A RELATED SYNDROME Total score” value in the assay with 5-HT1A receptors (dose 8 mg/kg/ip) was found to be 2.0 ± 1.2. Also, the “DOSE OF COMPOUND” value in the assay with 5-HT2 receptors came to 1420 μg/kg/ip.
As for `COc1ccccc1N1CCN(CCCCn2c(=O)[nH]c3ccccc32)CC1` [Compound 1, 1-[4-(4-(2-methoxy-phenyl)piperazin-1-yl)butyl]-2,3-dihydro-1H-benzimidazol-2-one], the Ki stood at 13 nM at 5-HT1A receptor and 36 nM at 5-HT2 receptor. Also, in the assay with 5-HT1A receptors (dose 8 mg/kg/ip), the “INDUCTION OF 5-HT1A RELATED SYNDROME Total score” value is 7.3 ± 0.9. For the same compound, the “DOSE OF COMPOUND” value in the assay on 5-HT2 receptors was determined as 720 μg/kg/ip.
Turning to `Cn1c(=O)n(CCCCN2CCN(c3cccc(C(F)(F)F)c3)CC2)c2ccccc21` [Compound 9, 1-[4-(4-(3-trifluoromethyl-phenyl)piperazin-1-yl)butyl]-3-methyl-2,3-dihydro-1H-benzimidazol-2-one], the inhibition constant (Ki) on 5-HT1A receptor stood at 23 nM; at 5-HT2 receptor, 14 nM. The “INDUCTION OF 5-HT1A RELATED SYNDROME Total score” value in the assay with 5-HT1A receptors (dose 8 mg/kg/ip) stood at 2.0 ± 0.6. Moreover, the “DOSE OF COMPOUND” value with 5-HT2 receptors was determined as 1720 μg/kg/ip.
